Where “and” joins values, the source holds several entries; their conditions need not be identical. Identical values can stand only once. Like-named read-outs stand apart in the source and are kept apart here. * marks the point of attachment. (CH3(CH2)17)2NCOCH2OCH2CO = CCCCCCCCCCCCCCCCCCN(CCCCCCCCCCCCCCCCCC)C(=O)COCC(=O)*; (C12H25)2NCOCH2CH2CO = CCCCCCCCCCCCN(CCCCCCCCCCCC)C(=O)CCC(=O)*; (C12)2NCOCH2CH2CO = CCCCCCCCCCCCN(CCCCCCCCCCCC)C(=O)CCC(=O)*; OC7 = heptyl ester (C-terminal), CCCCCCCO*; O(CH2)6CH3 = CCCCCCCO*; OC7H15 = CCCCCCCO*
System: A. thaliana (Col-0) plant
Format: in vivo, Arabidopsis thaliana
Conditions: for Decrease in primary root length: vs PNS
Text: The effect treating a plant with a composition comprising a synthetic amphiphile on root morphology or other physical characteristics or attributes can be quantitated. For example, a change in primary root length can be determined by measuring the difference, if any, in primary root length of a plant treated with the composition compared to the average of a control sample of plants of the same type grown under identical conditions in the absence of the composition. A change in lateral root density can be determined by comparing the lateral root density of a plant treated with the composition to the average lateral root density of a sample grown under identical conditions in the absence of the composition. Lateral root density can be determined by dividing the number of lateral roots by the length of the primary root. In certain embodiments for any quantitated characteristic or attribute, the average value of the control is the average of a statistically significant population of control plants. For example, in certain illustrative embodiments disclosed herein, three trials of about 20 plants each were used to determine the average of the control.
Illustrative of certain embodiments, approximately 60 plants were grown on PNS media (no additives) and root lengths and the number of lateral roots were recorded for each. The data points were averaged to obtain the following baseline values: primary root length=40.4±3.8 mm and number of lateral roots=6.1±0.8, respectively. The lateral root density was obtained by dividing the number of lateral roots by the length (in mm) of the primary root. The control value was (6.1/[…]=) 0.15.
Test compounds were added to the growth medium as 0.2% by volume DMSO. […]
To make 500 mL PN media, 485 mL doubly distilled (“dd”) H2O was first added to an autoclave beaker. The following salts and nutrients were added to a beaker and mixed well: 5 mL of 250 mM of KPO4 (pH 5.5), 2.5 mL of 1M KNO3, 1 mL of 1M MgSO4, 1 mL of 1M Ca(NO3)2, 0.5 mL of Ferric EDTA (1000× or 49 mM) and 0.5 mL of Micronutrients (1000×). In a 1 L autoclaved bottle, 0.6% (3 g) of bacteriological agar was added, followed by 500 mL solution prepared above. The media was autoclaved using the Liquid-30 program.
PNS plates were used for plating sterile Arabidopsis thaliana (Columbia-0) seeds. A sterile stock of PNS agar was maintained. Sterile sucrose was added to PN media to make PNS media. To make PNS media containing 0.5% sucrose, 5 mL of 50% sucrose (sterile filtered) was added to 500 mL of PN agar and mixed well.
The stored PNS media was liquefied using a water bath and allowed to cool to 55° C. The type of plates, compounds, and concentrations to be used were confirmed while the media cooled. The plates were labeled on the cover and the bottom with all the relevant information. 50 mL sterile centrifuge tubes were used to measure 29,940 μL (29.94 mL) PNS media. A fresh sterile 50 mL tube was used for each plate. The desired amount and concentration of compound was added to the PNS media, mixed by inverting the tube and poured in the plate. Total volume of media and compound in each plate was kept constant at 30 mL. A maximum of 60 μL (0.2% by volume) compound was added per plate. For example: 60 μL of 25 mM compound was added to 29.94 mL PNS media to get final concentration of 50 μM compound in PNS media. Plates were incubated at room temperature for 2 hours before plating seeds on them.
Hands and bench area were washed thoroughly before beginning. Sterilizing solution was prepared in a sterile 15 mL centrifuge tube, by mixing 5 mL of 30% bleach and 5 μL of 10% Triton X-100. A. thaliana Col-0 seeds were added to sterile 1.5 mL micro-centrifuge tube. 500 μL of sterilizing solution (30% bleach+0.01% Triton X-100) was added to the seeds, vortexed for 3 seconds and incubated at room temperature for 8 minutes. After 8 minutes, bleach was removed and 1 mL autoclaved MilliQ water was added. […]

[1] = Table 2, 20 μM in PNS, no unit in table (method: millimeters)
[2] = Table 2, 50 μM in PNS, no unit in table (method: millimeters)
[3] = 100 nM in PNS, positive control

Compound: CCCCCCCCCCCCN1CCOCCOCCN(CCCCCCCCCCCC)CCOCCOCC1 [C12 lariat ether]
- Lateral root density (Table 2, 20 μM): 0.17
- Number lateral roots (Table 2, 20 μM): 6
- Percent decrease 1° root (Table 2, 20 μM): 1.3%
- Primary root length [1]: 40.1 mm
- Lateral root density (Table 2, 50 μM): 0.15
- Number lateral roots (Table 2, 50 μM): 4.9
- Percent decrease 1° root (Table 2, 50 μM): 11.5%
- Primary root length [2]: 35.9 mm

Compound: c1ccc(CN2CCOCCOCCN(CCCCCCCCCCCCCCN3CCOCCOCCN(CCCCCCCCCCCCCCN4CCOCCOCCN(Cc5ccccc5)CCOCCOCC4)CCOCCOCC3)CCOCCOCC2)cc1 [C14 hydraphile (2)]
- Number of lateral roots (hydraphile 20 μM): 6.2±0.3
- Primary root length (hydraphile 20 μM in PNS media): 14 ± 2 mm
- Primary root length (hydraphile 20 μM in PNS media, listed as compound 2): 14±2 mm
- Decrease in primary root length (hydraphile 20 μM): 63%
- Increase in lateral root density (hydraphile 20 μM, vs control): 4 fold
- Lateral root density (hydraphile 20 μM, lateral roots divided by primary root length): 0.48±0.08
- Primary root length (hydraphile 50 μM in PNS media): 0.7 ± 0.2 mm
- Primary root length (hydraphile 50 μM in PNS media, listed as compound 2): 0.7±0.2 mm
- Decrease in primary root length (hydraphile 50 μM): 98%

Compound: c1ccc(CN2CCOCCOCCN(CCCCCCCCCCCCCCCCN3CCOCCOCCN(CCCCCCCCCCCCCCCCN4CCOCCOCCN(Cc5ccccc5)CCOCCOCC4)CCOCCOCC3)CCOCCOCC2)cc1 [C16 hydraphile (3)]
- Primary root length (hydraphile 10 μM in PNS media): 23 ± 0.4 mm
- Primary root length (hydraphile 10 μM in PNS media, listed as compound 3): 23±0.4 mm
- Decrease in primary root length (hydraphile 10 μM): 39%
- Primary root length (hydraphile 20 μM in PNS media): 15 ± 0.5 mm
- Primary root length (hydraphile 20 μM in PNS media, listed as compound 3): 15±0.5 mm
- Decrease in primary root length (hydraphile 20 μM): 61%
- Effect on growth / root development (hydraphile 50 μM in PNS media): inhibit the primary root development
- Primary root length (hydraphile 50 μM in PNS media): 4 ± 0.2 mm
- Primary root length (hydraphile 50 μM in PNS media, listed as compound 3): 4±0.2 mm
- Decrease in primary root length (hydraphile 50 μM): 90%

Compound: CCCCCCN1CCOCCOCCN(CCCCCC)CCOCCOCC1 [C6 lariat ether]
- Lateral root density (Table 2, 20 μM): 0.18
- Number lateral roots (Table 2, 20 μM): 6.6
- Percent decrease 1° root (Table 2, 20 μM): 5.9%
- Primary root length [1]: 38.3 mm
- Lateral root density (Table 2, 50 μM): 0.14
- Number lateral roots (Table 2, 50 μM): 4.6
- Percent decrease 1° root (Table 2, 50 μM): 18.8%
- Primary root length [2]: 33 mm

Compound: [CH3(CH2)17]2NCOCH2OCH2CO-Gly-Gly-Gly-Pro-Gly-Gly-Gly-O(CH2)6CH3 ({(CH3(CH2)17)2NCOCH2OCH2CO}-GGGPGGG-{O(CH2)6CH3}; SMILES CCCCCCCCCCCCCCCCCCN(CCCCCCCCCCCCCCCCCC)C(=O)COCC(=O)NCC(=O)NCC(=O)NCC(=O)N1CCC[C@H]1C(=O)NCC(=O)NCC(=O)NCC(=O)OCCCCCCC) [Compound 9]
- Effect on number of lateral roots relative to control (SAT 50 μM): within experimental error of the PNS control
- Effect on primary root length relative to control (SAT 50 μM): within experimental error of the PNS control
- Lateral root density (SAT 50 μM in PNS): 0.17 ± 0.02
- Number of lateral roots (SAT 50 μM in PNS): 6.8 ± 1.3
- Primary root length (SAT 50 μM in PNS): 40.5 ± 3.4 mm

Compound: CCCCCCCCC(=O)N1CCOCCOCCN(C(=O)CCCCCCCC)CCOCCOCC1 [C9 lariat ether amide]
- Lateral root density (Table 2, 20 μM): 0.19
- Number lateral roots (Table 2, 20 μM): 1.6
- Percent decrease 1° root (Table 2, 20 μM): 78.2%
- Primary root length [1]: 9.2 mm
- Lateral root density (Table 2, 50 μM): 0.13
- Number lateral roots (Table 2, 50 μM): 2
- Percent decrease 1° root (Table 2, 50 μM): 62.6%
- Primary root length [2]: 15.7 mm

Compound: O=C(O)COc1ccc(Cl)cc1Cl [2,4-D, 2,4-Dichlorophenoxyacetic acid, reference compound]
- Lateral root density [3]: 0.85 and 0.85 ± 0.12
- Number of lateral roots [3]: 3.4±0.6
- Primary root length [3]: 3.9±0.6 mm

Compound: (C12)2NCOCH2CH2CO-AAAPGGG-OC7 ({(C12)2NCOCH2CH2CO}-AAAPGGG-OC7; SMILES CCCCCCCCCCCCN(CCCCCCCCCCCC)C(=O)CCC(=O)N[C@@H](C)C(=O)N[C@@H](C)C(=O)N[C@@H](C)C(=O)N1CCC[C@H]1C(=O)NCC(=O)NCC(=O)NCC(=O)OCCCCCCC) [Compound 10]
- Lateral root density (SAT 50 μM in PNS): 0.12
- Number of lateral roots (SAT 50 μM in PNS): 3.4
- Primary root length (SAT 50 μM in PNS): 28.4 mm

Compound: CCCCCCCCCCCCCCN1CCOCCOCCN(CCCCCCCCCCCCCC)CCOCCOCC1 [C14 lariat ether]
- Lateral root density (Table 2, 20 μM): 0.17
- Number lateral roots (Table 2, 20 μM): 6.9
- Percent decrease 1° root (Table 2, 20 μM): 0%
- Primary root length [1]: 41.5 mm
- Lateral root density (Table 2, 50 μM): 0.21
- Number lateral roots (Table 2, 50 μM): 4.9
- Percent decrease 1° root (Table 2, 50 μM): 48.4%
- Primary root length [2]: 20.9 mm

Compound: CCCCCCCCCCN1CCOCCOCCN(CCCCCCCCCC)CCOCCOCC1 [C10 lariat ether, N,N′-Didecyl-4,13-diaza-18-crown-6]
- Lateral root density with increasing concentration (0 μM to 50 μM, FIG. 7): Linear increase in lateral root density
- Lateral root density (Table 2, 20 μM): 1.14
- Number lateral roots (Table 2, 20 μM): 4
- Percent decrease 1° root (Table 2, 20 μM): 91.4%
- Primary root length [1]: 3.5 mm
- Lateral root density (Table 2, 50 μM): 1.75
- Number lateral roots (Table 2, 50 μM): 3.5
- Percent decrease 1° root (Table 2, 50 μM): 95.1%
- Primary root length [2]: 2 mm
- Change in root morphology (lariat ether 20 μM): significant change in root morphology

Compound: CCCCCCCCCCCC(=O)N1CCOCCOCCN(C(=O)CCCCCCCCCCC)CCOCCOCC1 [C12 lariat ether amide]
- Lateral root density (Table 2, 50 μM): 0.18
- Number lateral roots (Table 2, 50 μM): 7
- Percent decrease 1° root (Table 2, 50 μM): 1.73%
- Primary root length [2]: 39.9 mm

Compound: CCCCCCCCCC(=O)N1CCOCCOCCN(C(=O)CCCCCCCCC)CCOCCOCC1 [C10 lariat ether amide, N,N′-Didecanoyl-4,13-diaza-18-crown-6]
- Lateral root density (Table 2, 50 μM): 0.19
- Number lateral roots (Table 2, 50 μM): 0.6
- Percent decrease 1° root (Table 2, 50 μM): 92.4%
- Primary root length [2]: 3.1 mm

Compound: CCCCCCCCCCCCCC(=O)N1CCOCCOCCN(C(=O)CCCCCCCCCCCCC)CCOCCOCC1 [C14 lariat ether amide]
- Lateral root density (Table 2, 50 μM): 0.21
- Number lateral roots (Table 2, 50 μM): 8.6
- Percent decrease 1° root (Table 2, 50 μM): 0%
- Primary root length [2]: 41.9 mm

Compound: CCCCCC(=O)N1CCOCCOCCN(C(=O)CCCCC)CCOCCOCC1 [C6 lariat ether amide]
- Lateral root density (Table 2, 50 μM): 0.15
- Number lateral roots (Table 2, 50 μM): 5.6
- Percent decrease 1° root (Table 2, 50 μM): 4.9%
- Primary root length [2]: 38.6 mm

Compound: (C12H25)2NCOCH2CH2CO-GGGPSGS-OC7H15 ({(C12H25)2NCOCH2CH2CO}-GGGPSGS-OC7H15; SMILES CCCCCCCCCCCCN(CCCCCCCCCCCC)C(=O)CCC(=O)NCC(=O)NCC(=O)NCC(=O)N1CCC[C@H]1C(=O)N[C@@H](CO)C(=O)NCC(=O)N[C@@H](CO)C(=O)OCCCCCCC) [Compound 15]
- Effect on number of lateral roots relative to control (SAT 50 μM): does not show such a dramatic effect
- Effect on primary root length relative to control (SAT 50 μM): dramatic reduction in primary root length
- Overall effect on growth / root morphology relative to control (SAT 50 μM): shorter primary root and new lateral roots
- Lateral root density (SAT 50 μM in PNS): 0.51 ± 0.03
- Number of lateral roots (SAT 50 μM in PNS): 4.5 ± 0.4
- Primary root length (SAT 50 μM in PNS): 9.0 ± 1.2 mm

Compound: CCCCCCCC(=O)N1CCOCCOCCN(C(=O)CCCCCCC)CCOCCOCC1 [C8 lariat ether amide, N,N′-Dioctanoyl-4,13-diaza-18-crown-6]
- Lateral root density (Table 2, 50 μM): 0.17
- Number lateral roots (Table 2, 50 μM): 5.2
- Percent decrease 1° root (Table 2, 50 μM): 23.2%
- Primary root length [2]: 31.2 mm
